Among the data in patent US10081624B2, “Heterocyclic compound” (Takeda Pharmaceutical Company Limited, priority 2014, dated 2018) are inhibition values, retold here.

Experiment [1] addresses T1, HDAC1 enzyme (Homo sapiens, UniProt Q13547).
T1 construct: prepared by transducing full length HDAC1 and HDAC6 genes into Sf-9 insect cells; GST; purchased SignalChem; host or cells: Sf-9 insect cells
Briefly: HDAC1 enzyme inhibitory assay (HDAC-Glo I/II Assay kit). To be noted: 1 μM test compound; read-out: HDAC1 inhibitory rate (%) (1 μM). Type of experiment: biochemical. Summed up:
(§1)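 Relative activity was calculated from luminescence, with wells lacking enzyme defined as 100% inhibition. The enzymes were full-length HDAC1 or HDAC6 from Sf-9 cells, preincubated with test compound for 60 min before a 20-min substrate-developer reaction at room temperature.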

For experiment [2], the target named is T2, HDAC6 enzyme (Homo sapiens, UniProt Q9UBN7).
T2 construct: prepared by transducing full length HDAC1 and HDAC6 genes into Sf-9 insect cells; GST; purchased SignalChem; host or cells: Sf-9 insect cells
T2 sequence (Q9UBN7 1-1215): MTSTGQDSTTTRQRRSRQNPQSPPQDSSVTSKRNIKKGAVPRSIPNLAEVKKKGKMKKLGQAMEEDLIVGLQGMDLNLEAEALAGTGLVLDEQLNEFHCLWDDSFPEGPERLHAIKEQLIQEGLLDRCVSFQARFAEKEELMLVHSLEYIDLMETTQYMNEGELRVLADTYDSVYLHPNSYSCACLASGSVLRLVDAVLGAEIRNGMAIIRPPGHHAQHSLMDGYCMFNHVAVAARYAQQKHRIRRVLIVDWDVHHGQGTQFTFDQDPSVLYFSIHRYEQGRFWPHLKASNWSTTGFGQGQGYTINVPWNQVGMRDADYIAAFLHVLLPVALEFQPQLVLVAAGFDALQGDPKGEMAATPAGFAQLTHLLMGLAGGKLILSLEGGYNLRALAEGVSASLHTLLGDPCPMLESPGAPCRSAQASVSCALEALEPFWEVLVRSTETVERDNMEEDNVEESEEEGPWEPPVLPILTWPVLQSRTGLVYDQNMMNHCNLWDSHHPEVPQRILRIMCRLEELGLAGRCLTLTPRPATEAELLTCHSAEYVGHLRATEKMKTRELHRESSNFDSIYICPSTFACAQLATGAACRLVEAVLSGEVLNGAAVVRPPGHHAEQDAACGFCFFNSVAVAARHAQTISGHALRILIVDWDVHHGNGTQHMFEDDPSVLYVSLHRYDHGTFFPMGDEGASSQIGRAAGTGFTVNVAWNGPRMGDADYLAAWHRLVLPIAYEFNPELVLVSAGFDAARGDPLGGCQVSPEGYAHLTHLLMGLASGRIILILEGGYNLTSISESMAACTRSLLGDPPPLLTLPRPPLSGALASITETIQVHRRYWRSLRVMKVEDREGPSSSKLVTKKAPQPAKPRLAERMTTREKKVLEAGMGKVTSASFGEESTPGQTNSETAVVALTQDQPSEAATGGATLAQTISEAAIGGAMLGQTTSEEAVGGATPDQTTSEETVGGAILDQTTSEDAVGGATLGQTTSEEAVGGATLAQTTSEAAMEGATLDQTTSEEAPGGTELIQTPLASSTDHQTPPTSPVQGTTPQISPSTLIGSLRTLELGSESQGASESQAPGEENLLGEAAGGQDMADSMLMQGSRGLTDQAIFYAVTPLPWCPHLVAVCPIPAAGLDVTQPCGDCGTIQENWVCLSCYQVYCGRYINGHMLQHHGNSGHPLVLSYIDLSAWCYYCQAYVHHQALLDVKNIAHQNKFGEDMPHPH
The experiment can be described thus: HDAC6 enzyme inhibitory assay (HDAC-Glo I/II Assay kit). The conditions noted are these: 1 μM test compound; read-out: HDAC6 inhibitory rate (%) (1 μM). Type of experiment: biochemical. Summed up:
as §1

T1 sequence (Q13547 whole entry): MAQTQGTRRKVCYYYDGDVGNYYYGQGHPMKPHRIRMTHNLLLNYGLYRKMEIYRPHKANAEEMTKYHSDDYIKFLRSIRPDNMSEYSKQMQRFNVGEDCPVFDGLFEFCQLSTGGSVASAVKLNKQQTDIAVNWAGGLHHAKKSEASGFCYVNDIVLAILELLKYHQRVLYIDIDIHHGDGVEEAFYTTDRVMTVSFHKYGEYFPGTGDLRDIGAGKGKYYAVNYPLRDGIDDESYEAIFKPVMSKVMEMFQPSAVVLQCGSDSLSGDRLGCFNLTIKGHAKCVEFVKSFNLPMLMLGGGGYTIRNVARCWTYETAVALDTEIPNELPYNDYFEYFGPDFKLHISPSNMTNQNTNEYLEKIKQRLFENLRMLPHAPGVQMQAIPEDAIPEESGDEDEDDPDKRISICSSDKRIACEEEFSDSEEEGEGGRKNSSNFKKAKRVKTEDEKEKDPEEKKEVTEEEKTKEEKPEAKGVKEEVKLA

With `Cc1cc(C#N)ccc1C(=O)N1CCOC[C@@H]1CNC(=O)c1ccc(-c2noc(C(F)(F)F)n2)cc1` [Example 87, N-(((3S)-4-(4-cyano-2-methylbenzoyl)morpholin-3-yl)methyl)-4-(5-(trifluoromethyl)-1,2,4-oxadiazol-3-yl)benzamide], the inhibition at 1 µM in experiment [1] worked out at 29%; in experiment [2], 98%.
For `Cc1noc(C)c1C(=O)N1CCOC[C@@H]1CNC(=O)c1ccc(-c2noc(C(F)(F)F)n2)cc1` [Example 88, N-(((3S)-4-((3,5-dimethyl-1,2-oxazol-4-yl)carbonyl)morpholin-3-yl)methyl)-4-(5-(trifluoromethyl)-1,2,4-oxadiazol-3-yl)benzamide] the same measures were 38% and 100%.
The corresponding values for `O=C(NC[C@H]1COCCN1C(=O)N1CCCCC1)c1ccc(-c2noc(C(F)(F)F)n2)cc1` [Example 89, N-(((3S)-4-(piperidin-1-ylcarbonyl)morpholin-3-yl)methyl)-4-(5-(trifluoromethyl)-1,2,4-oxadiazol-3-yl)benzamide] are 12% and 98%.
For the compound `Cn1nc2ccccc2c1C(=O)N1CCOC[C@@H]1CC(=O)Nc1ccc(-c2noc(C(F)(F)F)n2)cc1` [Example 90, 2-((3S)-4-((2-methyl-2H-indazol-3-yl)carbonyl)morpholin-3-yl)-N-(4-(5-(trifluoromethyl)-1,2,4-oxadiazol-3-yl)phenyl)acetamide], the inhibition at 1 µM was 29% in experiment [1] and 97% in experiment [2].
For `Cc1nc2sccn2c1C(=O)N1CCOC[C@@H]1CNC(=O)c1ccc(-c2noc(C(F)(F)F)n2)cc1` [Example 91, N-(((3S)-4-((6-methylimidazo[2,1-b][1,3]thiazol-5-yl)carbonyl)morpholin-3-yl)methyl)-4-(5-(trifluoromethyl)-1,2,4-oxadiazol-3-yl)benzamide], the inhibition at 1 µM is 42% in experiment [1] and 98% in experiment [2].
As for `O=C(NC[C@H]1COCCN1C(=O)N1CCC[C@H]1CO)c1ccc(-c2noc(C(F)(F)F)n2)cc1` [Example 107, N-(((3S)-4-(((2S)-2-(hydroxymethyl)pyrrolidin-1-yl)carbonyl)morpholin-3-yl)methyl)-4-(5-(trifluoromethyl)-1,2,4-oxadiazol-3-yl)benzamide], the inhibition at 1 µM came out at 14% in experiment [1] and 84% in experiment [2].
For `O=C(NC[C@H]1COCCN1C(=O)N1CCC[C@@H]1CO)c1ccc(-c2noc(C(F)(F)F)n2)cc1` [Example 108, N-(((3S)-4-(((2R)-2-(hydroxymethyl)pyrrolidin-1-yl)carbonyl)morpholin-3-yl)methyl)-4-(5-(trifluoromethyl)-1,2,4-oxadiazol-3-yl)benzamide] the same measures were 2% and 100%.
Turning to `O=C(NC[C@H]1COCCN1C(=O)N1C2CCC1COC2)c1ccc(-c2noc(C(F)(F)F)n2)cc1` [Example 109, N-(((3S)-4-(3-oxa-8-azabicyclo[3.2.1]oct-8-ylcarbonyl)morpholin-3-yl)methyl)-4-(5-(trifluoromethyl)-1,2,4-oxadiazol-3-yl)benzamide], the inhibition at 1 µM came to 10% in experiment [1] and 99% in experiment [2].
For `O=C(NC[C@H]1COCCN1C(=O)N1CC2CCC(C1)O2)c1ccc(-c2noc(C(F)(F)F)n2)cc1` [Example 110, N-(((3S)-4-(8-oxa-3-azabicyclo[3.2.1]oct-3-ylcarbonyl)morpholin-3-yl)methyl)-4-(5-(trifluoromethyl)-1,2,4-oxadiazol-3-yl)benzamide], the values for the inhibition at 1 µM in experiment [1] and in experiment [2] were 10% and 96%, respectively.
For `O=C(NC[C@@H]1COCCN1C(=O)c1cc2ccccc2o1)c1ccc(-c2noc(C(F)(F)F)n2)cc1` [Example 125, N-(((3R)-4-(1-benzofuran-2-ylcarbonyl)morpholin-3-yl)methyl)-4-(5-(trifluoromethyl)-1,2,4-oxadiazol-3-yl)benzamide], the inhibition at 1 µM in experiment [1] was determined as 19%; in experiment [2], 100%.
